Converted amounts (≈) assume the structure as drawn.
System: up to 32 different microorganisms
Experiment: in vitro antibacterial activity (MIC), agar dilution on Brain Heart Infusion (BHI) agar with Steers replicator
Assay type: cell-based
Details: unit assumed
Summary of the method: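 Up to 32 strains were replicator-inoculated (1:100, or 1:10 for Micrococcus and Streptococcus) onto BHI agar plates holding serial compound dilutions and kept 20-24 h at 35-37° C. Plates were read visually against drug-free growth controls, with erythromycin A run alongside; MIC was the lowest concentration giving no growth, slight haze or sparse colonies.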

[1] = Candida albicans CCH 442 (code TT)
[2] = Enterococcus faecism ATCC 8043 (code II)
[3] = Escherichia coli DC-2 (code SS)
[4] = Escherichia coli JUHL (code QQ)
[5] = Micrococcus luteus ATCC 4698 (code PP)
[6] = Micrococcus luteus ATCC 9341 (code OO)
[7] = Mycobacterium smegmatis ATCC 114 (code UU)
[8] = Nocardia Asteroides ATCC9970 (code VV)
[9] = Staphylococcus aureus 1775 (code GG)
[10] = Staphylococcus aureus A5177 (code BB)
[11] = Staphylococcus aureus A-5278 (code CC)
[12] = Staphylococcus aureus ATCC 6538P (code AA)
[13] = Staphylococcus aureus CMX 553 (code FF)
[14] = Staphylococcus aureus CMX 642A (code DD)
[15] = Staphylococcus aureus NCTC10649M (code EE)
[16] = Staphylococcus epidermidis 3519 (code HH)
[17] = Streptococcus agalactiae CMX 508 (code KK)
[18] = Streptococcus pyogenes 930 (code MM)
[19] = Streptococcus pyogenes EES61 (code LL)
[20] = Streptococcus pyogenes PIU 2548 (code NN)

## C#CCOC1(C)CC(C)C(=O)C(C)C2NC(=O)OC2(C)C(CC)OC(=O)C(C)C(=O)C(C)C1OC1OC(C)CC(N(C)C)C1O (stereo not drawn) [Example 246, Compound of Formula (IX): L is CO, T is NH, R is —CH2CH≡C—H]
Organism code AA
  MIC: 0.78 µg/mL
Organism code BB
  MIC: 0.78 µg/mL
Organism code CC
  MIC: > 100 µg/mL
Organism code DD
  MIC: 0.78 µg/mL
Organism code EE
  MIC: 0.78 µg/mL
Organism code FF
  MIC: 0.78 µg/mL
Organism code GG
  MIC: > 100 µg/mL
Organism code HH
  MIC: 0.78 µg/mL
Organism code II
  MIC: 0.2 µg/mL
Organism code JJ
  MIC: 0.1 µg/mL
Organism code KK
  MIC: 0.2 µg/mL
Organism code LL
  MIC: 0.2 µg/mL
Organism code MM
  MIC: > 100 µg/mL
Organism code NN
  MIC: 0.39 µg/mL
Organism code OO
  MIC: 0.2 µg/mL
Organism code PP
  MIC: 0.78 µg/mL
Organism code QQ
  MIC: > 100 µg/mL
Organism code RR
  MIC: 0.78 µg/mL
Organism code SS
  MIC: > 100 µg/mL
Organism code TT
  MIC: > 100 µg/mL
Organism code UU
  MIC: 50 µg/mL
Organism code VV
  MIC: 0.78 µg/mL
Organism code WW
  MIC: 16 µg/mL
Organism code XX
  MIC: 0.25 µg/mL
Organism code YY
  MIC: 0.125 µg/mL
Organism code ZZ
  MIC: > 128 µg/mL
Organism code ZZA
  MIC: 0.5 µg/mL

## CCC1OC(=O)C(C)C(=O)C(C)C(OC2OC(C)CC(N(C)C)C2O)C(C)(OCC=Cc2cnc3ccc(Cl)cc3c2)CC(C)C(=O)C(C)C2NC(=O)OC12C (stereo not drawn) [Example 191, R is —CH2CH═CH-(6-chloro-3-quinolyl)]
[1]
  MIC: > 100 µg/mL
[2]
  MIC: 0.05 µg/mL (≈ 0.0625 µM)
[3]
  MIC: 100 µg/mL (≈ 125 µM)
[4]
  MIC: 50 µg/mL (≈ 62.5 µM)
Escherichia coli SS (code RR)
  MIC: 0.2 µg/mL (≈ 0.25 µM)
Haemophilis influenzae DILL AMP R (code WW)
  MIC: 2 µg/mL (≈ 2.5 µM)
[5]
  MIC: 0.1 µg/mL (≈ 0.125 µM)
[6]
  MIC: 0.01 µg/mL (≈ 0.0125 µM)
[7]
  MIC: 0.39 µg/mL (≈ 0.487 µM)
[8]
  MIC: 0.02 µg/mL (≈ 0.025 µM)
[9]
  MIC: > 100 µg/mL
[10]
  MIC: 0.05 µg/mL (≈ 0.0625 µM)
[11]
  MIC: > 100 µg/mL
[12]
  MIC: 0.05 µg/mL (≈ 0.0625 µM)
[13]
  MIC: 0.05 µg/mL (≈ 0.0625 µM)
[14]
  MIC: 0.05 µg/mL (≈ 0.0625 µM)
[15]
  MIC: 0.1 µg/mL (≈ 0.125 µM)
[16]
  MIC: 0.05 µg/mL (≈ 0.0625 µM)
Streptococcus Pneumonia 5649 (code ZZA)
  MIC: 0.25 µg/mL (≈ 0.312 µM)
Streptococcus Pneumonia 5979 (code ZZ)
  MIC: 2 µg/mL (≈ 2.5 µM)
Streptococcus Pneumonia ATCC6303 (code XX)
  MIC: 0.03 µg/mL (≈ 0.0375 µM)
Streptococcus Pneumonia GYR 1171 (code YY)
  MIC: 0.03 µg/mL (≈ 0.0375 µM)
[17]
  MIC: 0.05 µg/mL (≈ 0.0625 µM)
[18]
  MIC: 3.1 µg/mL (≈ 3.87 µM)
[19]
  MIC: 0.02 µg/mL (≈ 0.025 µM)
[20]
  MIC: 0.1 µg/mL (≈ 0.125 µM)

## CC[C@H]1OC(=O)[C@H](C)C(=O)[C@H](C)[C@@H](O[C@@H]2O[C@H](C)C[C@H](N(C)C)[C@H]2O)[C@@](C)(OCCNCCCc2cnc3ccccc3c2)C[C@@H](C)C(=O)[C@H](C)[C@H]2NC(=O)O[C@@]21C [Example 225, Compound of Formula (IX): L is CO, T is NH, R is —CH2CH2NHCH2CH2CH2-(3-quinolyl)]
Organism code AA
  MIC: 0.2 µg/mL
Organism code BB
  MIC: 0.39 µg/mL
Organism code CC
  MIC: > 100 µg/mL
Organism code DD
  MIC: 0.39 µg/mL
Organism code EE
  MIC: 0.39 µg/mL
Organism code FF
  MIC: 0.1 µg/mL
Organism code GG
  MIC: > 100 µg/mL
Organism code HH
  MIC: 0.2 µg/mL
Organism code II
  MIC: 0.05 µg/mL
Organism code JJ
  MIC: 0.01 µg/mL
Organism code KK
  MIC: 0.01 µg/mL
Organism code LL
  MIC: 0.01 µg/mL
Organism code MM
  MIC: > 100 µg/mL
Organism code NN
  MIC: 0.39 µg/mL
Organism code OO
  MIC: 0.02 µg/mL
Organism code PP
  MIC: 0.1 µg/mL
Organism code QQ
  MIC: 12.5 µg/mL
Organism code RR
  MIC: 0.1 µg/mL
Organism code SS
  MIC: 12.5 µg/mL
Organism code TT
  MIC: > 100 µg/mL
Organism code UU
  MIC: 3.1 µg/mL
Organism code VV
  MIC: 0.2 µg/mL
Organism code WW
  MIC: 4 µg/mL
Organism code XX
  MIC: 0.03 µg/mL
Organism code YY
  MIC: 0.06 µg/mL
Organism code ZZ
  MIC: > 128 µg/mL
Organism code ZZA
  MIC: 2 µg/mL

## CC[C@H]1OC(=O)[C@H](C)C(=O)[C@H](C)[C@@H](O[C@@H]2O[C@H](C)C[C@H](N(C)C)[C@H]2O)[C@@](C)(OCC#Cc2ccc3cc(Cl)ccc3c2)C[C@@H](C)C(=O)[C@H](C)[C@H]2NC(=O)O[C@@]21C [Example 253, Compound of Formula (IX): L is CO, T is NH, R is —CH2—C≡C-(6-chloro-2-naphthyl)]
Organism code AA
  MIC: 0.05 µg/mL
Organism code BB
  MIC: 0.05 µg/mL
Organism code CC
  MIC: > 100 µg/mL
Organism code DD
  MIC: 0.05 µg/mL
Organism code EE
  MIC: 0.1 µg/mL
Organism code FF
  MIC: 0.05 µg/mL
Organism code GG
  MIC: > 100 µg/mL
Organism code HH
  MIC: 0.05 µg/mL
Organism code II
  MIC: 0.05 µg/mL
Organism code JJ
  MIC: 0.02 µg/mL
Organism code KK
  MIC: 0.02 µg/mL
Organism code LL
  MIC: 0.01 µg/mL
Organism code MM
  MIC: 0.78 µg/mL
Organism code NN
  MIC: 0.05 µg/mL
Organism code OO
  MIC: 0.01 µg/mL
Organism code PP
  MIC: 0.1 µg/mL
Organism code QQ
  MIC: 50 µg/mL
Organism code RR
  MIC: 0.3 µg/mL
Organism code SS
  MIC: 50 µg/mL
Organism code TT
  MIC: > 100 µg/mL
Organism code UU
  MIC: 0.2 µg/mL
Organism code VV
  MIC: 0.02 µg/mL
Organism code WW
  MIC: 2 µg/mL
Organism code XX
  MIC: 0.015 µg/mL
Organism code YY
  MIC: 0.03 µg/mL
Organism code ZZ
  MIC: 1 µg/mL
Organism code ZZA
  MIC: 0.25 µg/mL

## CCC1OC(=O)C(C)C(=O)C(C)C(OC2OC(C)CC(N(C)C)C2O)C(C)(OCC=Cc2ccc3ncccc3c2)CC(C)C(=O)C(C)C2NC(=O)OC12C (stereo not drawn) [Example 194, R is —CH2CH═CH-(6-quinolyl)]
[1]
  MIC: > 100 µg/mL
[2]
  MIC: 0.02 µg/mL (≈ 0.0261 µM)
[3]
  MIC: 100 µg/mL (≈ 131 µM)
[4]
  MIC: 50 µg/mL (≈ 65.3 µM)
Escherichia coli SS (code RR)
  MIC: 0.39 µg/mL (≈ 0.509 µM)
[5]
  MIC: 0.1 µg/mL (≈ 0.131 µM)
[6]
  MIC: 0.01 µg/mL (≈ 0.0131 µM)
[7]
  MIC: 0.78 µg/mL (≈ 1.02 µM)
[8]
  MIC: ≤ 0.005 µg/mL
[9]
  MIC: > 100 µg/mL
[10]
  MIC: 0.05 µg/mL (≈ 0.0653 µM)
[11]
  MIC: > 100 µg/mL
[12]
  MIC: 0.05 µg/mL (≈ 0.0653 µM)
[13]
  MIC: 0.05 µg/mL (≈ 0.0653 µM)
[14]
  MIC: 0.05 µg/mL (≈ 0.0653 µM)
[15]
  MIC: 0.1 µg/mL (≈ 0.131 µM)
[16]
  MIC: 0.05 µg/mL (≈ 0.0653 µM)
[17]
  MIC: 0.01 µg/mL (≈ 0.0131 µM)
Streptococcus bovis A-5169 (code JJ)
  MIC: ≤ 0.005 µg/mL
[18]
  MIC: 0.78 µg/mL (≈ 1.02 µM)
[19]
  MIC: 0.01 µg/mL (≈ 0.0131 µM)
[20]
  MIC: 0.05 µg/mL (≈ 0.0653 µM)

Reference: patent USRE39591E1, “6-O-substituted ketolides having antibacterial activity” (Abbott Laboratories, priority 1996, dated 2007)
